According to US9763939B2, “Compositions and methods for treating mitochondrial diseases” (BIOVISTA, INC., priority 2012, dated 2017):
Like-named read-outs stand apart in the source and are kept apart here.

Experiments:
[1] = tested on: C57BL/6 mice with MOG-induced EAE; assay: MOG-induced Experimental Allergic Encephalomyelitis (MOG-EAE) mouse model, spinal cord histology; type: in vivo; conditions: spinal cord H&E histology day 35, pirlindole 30 mg/kg, dexamethasone positive control, dose not given; for Severity Score (infiltration by inflammatory cells): vehicle 2.85±0.66; for White Matter Damage (WMD) percentage (axonal degeneration): vehicle 74.2±26.1
Procedure: EXAMPLE. Evaluation of anti-inflammatory and direct protection mode of action. Compounds described herein are evaluated in a standard MOG-induced Experimental Allergic Encephalomyelitis (MOG-EAE) mouse model of neurodegeneration to determine whether the compounds protect neurons directly, or via an indirect anti-inflammatory mode of action. EAE is induced in C57BL/6 mice by the single subcutaneous injection of MOG emulsified in Complete Freund's Adjuvant (CFA) on study days 0 and 6, followed by intraperitoneal supplemental immunostimulation with Pertussis Toxin (PT) carried out once at the time of EAE induction and once again 48 hours later. Test animals are observed for 35 days. Histology samples are harvested from the spinal cords of the animals on day 35 and are stained with Hematoxylin & Eosin (H&E). Analysis of the samples comprises two parameters: a) The Severity Score which refers mainly to infiltration by inflammatory cells and b) White Matter Damage (WMD), which refers mainly to axonal degeneration.

in vivo [2] = conditions: rat
[3] = tested on: YG8R FRDA mouse neuronal stem cells (NSCs); assay: FAC/BSO oxidative stress insult, cell viability (Presto Blue), YG8R NSCs; type: cell-based
Procedure: (§1) EXAMPLE. Primary fibroblast and neuronal stem cell (NSC) cultures from the YG8R FRDA mouse model. The cell cultures are used as a rapid means to test the effectiveness of potential therapies before proceeding to longer-term FRDA mouse model investigations. A parallel assay using YG22R NSCs may be used.
(§2) YG8R fibroblasts and NSCs are treated with increasing concentrations of test compound, and a vehicle-only negative control. Optionally, YG8R fibroblasts and NSCs are treated with a positive control compound, such as 1 μM idebenone. Two hours after the initial treatment, cells are lesioned with […] FAC and 1 mM BSO for 48 hours. Cell viability is then determined using Presto Blue Cell Viability Reagent (Life Technologies) for 24 hours and subsequent colorimetric spectrophotometry. […] Similarly, 1.8 μM tetrindole restored the vehicle-treated FAC/BSO cell viability value of 26% to a value of 53% (p<0.001), relative to the vehicle treated non-insulted cell value as 100%.
Similarly, 1.8 μM tetrindole restored the vehicle-treated FAC/BSO cell viability value of 19% to a value of 40% (p<0.001), relative to the vehicle treated non-insulted cell value as 100%.

[4] = tested on: reuptake of 5-hydroxytryptamine; assay: Effect on reuptake of 5-hydroxytryptamine
[5] = tested on: human primary fibroblasts from patients suffering from LHON; assay: cells
Procedure: (§3) EXAMPLE. […] Briefly, primary human fibroblasts from patients suffering from Friedreich's ataxia and LHON are lesioned with 100 μM BSO (LHON fibroblasts) or 250 μM BSO (FRDA fibroblasts) respectively, for 48 hours. Apoptosis, toxicity and viability rate of cells are determined using the ApoTox-Glo-Kit (Promega): the reagent for assessing viability and toxicity is applied 1:5 into treatment medium and incubated for 30 min at 37° C. Next, fluorescence is measured at the following wavelength sets: 400EX/505EM (viability) and 485EX/520EM (toxicity). In case of apoptosis measurement the caspase reagent was added 1:2 and incubated at RT for 30 min, the caspase activity (apoptosis) was measured as luminescence
(§4) EXAMPLE. Evaluation of Tetracyclic Pyrazinoindoles, and Pharmaceutically Acceptable Salts Thereof. One or more tetracyclic pyrazinoindoles are applied 2 and 24 hours before BSO treatment and are present throughout the assay. An optional reference compound, such as idebenone may be included for comparison. BSO treated cells without any treatment (BSO group) as well as cells neither treated with BSO nor with any treatment (Vehicle Control (VC) group) serve as controls. Cells are assessed for apoptosis, toxicity and viability immediately after BSO lesion by means of the ApoTox-Glo-assay Kit (Promega). Three independent experiments in four technical replicates are performed for all groups as depicted in Table 1 (different tetracyclic pyrazinoindoles are labeled as Test Items (T.I.1-T.I.2) and an optional positive control Reference Item 1 (R.I.1)):
(§5) BSO generally reduces a cell's protection against oxidative damage. Cells harvested from FRDA and LHON patients generate higher levels of ROS than normal cells. Apoptosis, toxicity and viability rate of cells are determined using the ApoTox-Glo-Kit (Promega): the reagent for assessing viability and toxicity is applied 1:5 into treatment medium and incubated for 30 min at 37° C. Next, fluorescence is measured at the following wavelength sets: 400EX/505EM (viability) and 485EX/520EM (toxicity). In case of apoptosis measurement the caspase reagent is added 1:2 and incubated at RT for 30 min, the caspase activity (apoptosis) was measured as luminescence
(§6) Descriptive statistical analysis was performed. Data are presented as mean±standard error of mean (SEM) in percent of vehicle control, MPP+ lesion and BSO lesion, respectively. Differences between compound-treated groups and controls (vehicle, BSO) are evaluated by means of One-Way ANOVA.
(§7) EXAMPLE. […] One vial is thawed and administered 2 and 24 hours before BSO treatment, at concentrations 0.6 μM, 1.8 μM, 5.5 μM and 16 μM. Apoptosis, toxicity and viability rate of cells are determined using the ApoTox-Glo-Kit (Promega). Human primary fibroblasts from patients suffering from LHON are used. Three independent experiments in four technical replicates are performed for all groups. […] Statistical significance is indicated by NS=not significant p>0.1, *=p<0.05, **=p<0.01, ***=p<0.001 as determined by One-Way ANOVA. Data are shown as group mean+/−SEM.
(§8) EXAMPLE. Tetrindole is diluted in DMSO. One vial is thawed and administered 2 and 24 hours before BSO treatment, at concentrations 0.2 μM, 0.6 μM, 1.8 μM and 5.5 μM. Apoptosis, toxicity and viability rate of cells are determined using the ApoTox-Glo-Kit (Promega). Human primary fibroblasts from patients suffering from LHON are used. Three independent experiments in four technical replicates are performed for all groups. […] Statistical significance is indicated by NS=not significant p>0.1, *=p<0.05, **=p<0.01, ***=p<0.001 as determined by One-Way ANOVA. Data are shown as group mean+/−SEM.

[6] = tested on: reuptake of noradrenaline; assay: Effect on reuptake of noradrenaline
[7] = tested on: human primary fibroblasts from patients suffering from Friedreich's ataxia; assay: cells; conditions: for statistically significant improvement in apoptosis compared to the BSO group: all tested doses
Procedure: as §3, §4, §5, §6
as §7, with “Friedreich's ataxia” for “LHON”
as §8, with “Friedreich's ataxia” for “LHON”

mice = conditions: mouse, in vivo, po
Absolute bioavailability = conditions: in vivo; species not given
cholinergic system = assay: Effect on the cholinergic system
[8] = Pharmacokinetics and distribution in the rat; type: in vivo
dopaminergic system = assay: Effect on the dopaminergic system
in vivo [9] = conditions: mouse
[10] = Pharmacokinetics in the dog; type: in vivo
[11] = tested on: YG8R FRDA mouse fibroblasts; assay: FAC/BSO oxidative stress insult, cell viability (Presto Blue), YG8R fibroblasts; type: cell-based; conditions: FAC and 1 mM BSO 48 h
Procedure: as §1, §2

[12] = too lipophillic; cannot reach the mitochondria (Edeas M. Pharm Res. 2011); cited from earlier work
[13] = Homo sapiens, Fibroblast, 48 h, read-out: protective effect in relative cell viability
[14] = rats, after oral and i.p. administration

C[C@@H]1C[C@H]2[C@@H]3CCC4=CC(=O)C=C[C@]4(C)[C@@]3(F)[C@@H](O)C[C@]2(C)[C@@]1(O)C(=O)CO [dexamethasone]
Severity Score (infiltration by inflammatory cells) [1]: 1.45±1.09 | White Matter Damage (WMD) percentage (axonal degeneration) [1]: 24.4±33.3 percentage

Cc1ccc2c(c1)c1c3n2CCNC3CCC1 (stereo not drawn) [pirlindole, 2,3,3a,4,5,6-hexahydro-8-methyl-1H-pyrazino[3,2,1-j,k]carbazole]
LD50 (in vivo [2]; iv): ~80 mg/kg | LD50 (in vivo [2]; po): 2000 to 5000 mg/kg | protection against the oxidative stress insult [3]: significantly protect | viability at 5.5 µM ([3]; Mus musculus, 5.5 μM, vehicle-treated FAC/BSO value 19%, relative to vehicle treated non-insulted cells as 100%, p<0.001): 41% | effect on the reuptake of 5-hydroxytryptamine [4]: inhibitory effect | statistically significant overall cytotoxicity over BSO control [5]: not observed at any dose | apoptosis (caspase activity) ([5]; 16 μM, only significant after 24 h): reduced | apoptosis compared to the BSO group ([5]; 5.5 dose): Statistically significant inferior apoptosis | concentrations with protective effect or protective trend on cell viability ([5]; BSO lesion, pirlindole at both time points, tetrindole dose dependent protective trend): 16 µM | viability at 16 µM [5, 13]: 122% | effect on the reuptake of noradrenaline [6]: inhibitory effect | statistically significant overall cytotoxicity over BSO control [7]: not observed at any dose | apoptosis (caspase activity) ([7]; 16 μM, only after the short incubation (2 h before lesion)): reduced apoptosis | viability at 16 µM [7, 13]: 161% | statistically significant improvement in apoptosis compared to the BSO group [7]: not observed at any dose | maximal non-lethal dose (mice): approximately 300 mg/kg | bioavailability (Absolute bioavailability): 20 to 30% | effect on the cholinergic system (cholinergic system): no effect | fraction eliminated ([8]; after 48 h): 80-85% | Tmax ([8]; in vivo, rat, oral, approximately): 2 to 6 h | second phase of elimination ([8]; rat): 35 to 70 h | first phase of elimination ([8]; rat, approximately): approximately 8 h | blood brain barrier (BBB) penetration [8, 14]: good blood brain barrier (BBB) penetration | tissue distribution [8, 14]: distributed in the lungs, liver, kidneys, spleen and various glands (but only transiently in bone marrow) | fraction eliminated ([8]; within 24 h): 40-60% | Severity Score (infiltration by inflammatory cells) [1]: 2.7±1.29 | White Matter Damage (WMD) percentage (axonal degeneration) [1]: 41±44.1 percentage | effect on the dopaminergic system (dopaminergic system): no effect | LD50 (in vivo [9]; iv): 70 to 80 mg/kg | LD50 (in vivo [9]; po): 400 to 1000 mg/kg | first phase of elimination ([10]; dog, approximately): approximately 1.5 h | second phase of elimination ([10]; dog, approximately): ~11 h | third phase of elimination ([10]; dog, approximately): ~185 h | Tmax ([10]; in vivo, dog, oral, approximately): 1 to 2 h | blood levels versus dose ([10]; male and female dogs, repeated administration of three dose levels p.o. for one year): strictly dose-dependent | protection against the oxidative stress insult [11]: significantly protect | viability at 16 µM ([11]; Mus musculus, Fibroblast, 16 μM, vehicle-treated FAC/BSO value 26%, relative to vehicle treated non-insulted cells as 100%, p<0.001): 67%

c1cc2c(cc1C1CCCCC1)c1c3n2CCNC3CCC1 (stereo not drawn) [tetrindole, 2,3,3a,4,5,6-Hexahydro-8-cyclohexyl-1H-pyrazino[3,2,1-j,k]carbazole]
protection against the oxidative stress insult [3]: significantly protect | viability at 1.8 µM ([3]; Mus musculus, 1.8 μM, vehicle-treated FAC/BSO value 19%, relative to vehicle treated non-insulted cells as 100%, p<0.001): 40% | statistically significant overall cytotoxicity over BSO control [5]: not observed at any dose | viability at 1.8 µM [5, 13]: 122% | statistically significant improvement in apoptosis compared to the BSO group ([5]; all tested doses): not observed at any dose | statistically significant improvement in viability compared to the BSO group ([5]; all tested doses): not observed at any dose | viability at 1.8 µM [7, 13]: 156% | statistically significant improvement in apoptosis compared to the BSO group [7]: not observed at any dose | statistically significant overall cytotoxicity over BSO control ([7]; human): not observed at any dose, except the highest dose of 5.5 | protection against the oxidative stress insult [11]: significantly protect | viability at 1.8 µM ([11]; Mus musculus, Fibroblast, 1.8 μM, vehicle-treated FAC/BSO value 26%, relative to vehicle treated non-insulted cells as 100%, p<0.001): 53%

vitamin E
permeation of cell membranes [12]: permeates cell membranes poorly
